Results as given in patent US8952024B2, “Herbicidal pyrimidone derivatives” (E I du Pont de Nemours and Company, priority 2009, dated 2015).
Read-outs that look alike come from different tables or passages of the source.

What was measured:
Assay type in all cases: in vivo
[1] = test system: wheat (Triticum aestivum); assay: Test A pre-/postemergence plant response; conditions: Triticum aestivum, 240 h; for plant injury at 125 g/ha: 125 g ai/ha; for plant injury at 500 g/ha: 500 g ai/ha
In short: (§1)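 Seeds planted in loam soil/sand blend; test chemicals in non-phytotoxic solvent mixture with surfactant applied as directed soil spray preemergence and, concurrently, postemergence to plants 2–10 cm tall at one- to two-leaf stage. Greenhouse ~10 days; visual injury vs untreated controls, 0 (no effect) to 100 (complete control).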

[2] = test system: pigweed (Amaranthus retroflexus); assay: Test A pre-/postemergence plant response; conditions: Amaranthus retroflexus, 240 h, approx. ten days; for pest or weed control at 500 g/ha: 500 g ai/ha, read-out: Plant response rating, Pigweed
In short: as §1

[3] = test system: barnyardgrass (Echinochloa crus-galli); assay: Test A pre-/postemergence plant response; conditions: Echinochloa crus-galli, 240 h; for pest or weed control at 125 g/ha: 125 g ai/ha; for pest or weed control at 500 g/ha: 500 g ai/ha
In short: as §1

[4] = test system: large crabgrass (Digitaria sanguinalis); assay: Test A pre-/postemergence plant response; conditions: Digitaria sanguinalis, 240 h; for pest or weed control at 125 g/ha: 125 g ai/ha; for pest or weed control at 500 g/ha: 500 g ai/ha
In short: as §1

[5] = test system: giant foxtail (Setaria faberii); assay: Test A pre-/postemergence plant response; conditions: Setaria faberi, 240 h; for pest or weed control at 125 g/ha: 125 g ai/ha; for pest or weed control at 500 g/ha: 500 g ai/ha
In short: as §1

[6] = test system: morningglory (Ipomoea spp.); assay: Test A pre-/postemergence plant response; conditions: Ipomoea, 240 h; for pest or weed control at 125 g/ha: 125 g ai/ha; for pest or weed control at 500 g/ha: 500 g ai/ha
In short: as §1

corn (Zea mays) = assay: Test A pre-/postemergence plant response; conditions: Zea mays, 240 h; for Corn plant response rating (crop injury, 0 = no effect, 100 = complete kill) at 500 g/ha: 500 g ai/ha
In short: as §1

[7] = test system: velvetleaf (Abutilon theophrasti); assay: Test A pre-/postemergence plant response; conditions: Abutilon theophrasti, 240 h; for pest or weed control at 125 g/ha: 125 g ai/ha; for pest or weed control at 500 g/ha: 500 g ai/ha
In short: as §1

[8] = test system: barnyardgrass (Echinochloa crus-galli); assay: Test B flooded paddy test; conditions: Echinochloa crus-galli, 360 h
In short: (§2)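 Flooded-pot test: water raised to 3 cm above soil when treating, compound put in the water, level unchanged thereafter. Plants were at 2 leaves. Readout after 13 to 15 days, visual, relative to controls; 0 signifies no effect and 100 complete control.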

[9] = test system: ducksalad (Heteranthera limosa); assay: Test B flooded paddy test; conditions: Heteranthera limosa, 360 h
In short: as §2

[10] = test system: umbrella sedge (Cyperus difformis); assay: Test B flooded paddy test; conditions: Cyperus difformis, 360 h
In short: as §2

rice (Oryza sativa) = assay: Test B flooded paddy test; conditions: Oryza sativa
In short: as §2

CCn1ncc(C(=O)c2cnc(-c3ccccc3)n(Cc3ccccc3)c2=O)c1OS(=O)(=O)c1ccc(C)cc1 [Compound 21, 5-[[1-ethyl-5-[[(4-methylphenyl)sulfonyl]oxy]-1H-pyrazol-4-yl]carbonyl]-2-phenyl-3-(phenylmethyl)-4(3H)-pyrimidinone]
10%: pest or weed control at 500 g/ha ([3]; post-emergence, Postemergence, 0 to 100 scale, 0 = no effect, 100 = complete control, approx. ten days, read-out: Plant response rating, Barnyardgrass) | pest or weed control at 500 g/ha ([4]; post-emergence, Postemergence, 0 to 100 scale, 0 = no effect, 100 = complete control, approx. ten days, read-out: Plant response rating, Crabgrass, Large) | pest or weed control at 500 g/ha ([5]; pre-emergence, Preemergence, visual injury, 0 to 100 scale (0 no effect, 100 complete control), approx. ten days, read-out: Plant response rating, Foxtail, Giant)
60%: pest or weed control at 31 g/ha ([9]; Flood (flooded paddy test), 31 g ai/ha, scale of 0 to 100 where 0 is no effect and 100 is complete control, 13 to 15 days, read-out: Plant response rating, Ducksalad) | pest or weed control at 125 g/ha ([10]; Flood (flooded paddy test), 125 g ai/ha, scale 0 to 100, 0 is no effect, 100 is complete control, 13 to 15 days, read-out: Plant response rating, Sedge, Umbrella)
75%: pest or weed control at 250 g/ha ([9]; 250 g ai/ha, flooded paddy test, visual rating on 0 to 100 scale (0 no effect, 100 complete control) after 13 to 15 days, read-out: Plant response rating, Flood, Ducksalad)
0%: plant injury at 125 g/ha ([1]; post-emergence, Postemergence, visual injury, 0 to 100 scale (0 no effect, 100 complete control), approx. ten days, read-out: Wheat plant response rating) | plant injury at 500 g/ha ([1]; post-emergence, Postemergence, 0 to 100 scale, 0 = no effect, 100 = complete control, approx. ten days, read-out: Plant response rating, Wheat) | plant injury at 125 g/ha ([1]; pre-emergence, Preemergence, 0 to 100 scale, 0 = no effect, 100 = complete control, read-out: Plant response rating, Wheat) | plant injury at 500 g/ha ([1]; pre-emergence, Preemergence, visual injury, 0 to 100 scale (0 no effect, 100 complete control), approx. ten days, read-out: Plant response rating, Wheat) | pest or weed control at 125 g/ha ([2]; post-emergence, Postemergence, 125 g ai/ha, visual injury, 0 to 100 scale (0 no effect, 100 complete control), read-out: Pigweed plant response rating) | pest or weed control at 125 g/ha ([3]; post-emergence, Postemergence, visual injury, 0 to 100 scale (0 no effect, 100 complete control), approx. ten days, read-out: Barnyardgrass plant response rating) | pest or weed control at 125 g/ha ([3]; pre-emergence, Preemergence, 0 to 100 scale, 0 = no effect, 100 = complete control, read-out: Plant response rating, Barnyardgrass) | pest or weed control at 500 g/ha ([3]; pre-emergence, Preemergence, visual injury, 0 to 100 scale (0 no effect, 100 complete control), approx. ten days, read-out: Plant response rating, Barnyardgrass) | pest or weed control at 125 g/ha ([4]; post-emergence, Postemergence, visual injury, 0 to 100 scale (0 no effect, 100 complete control), approx. ten days, read-out: Crabgrass, Large plant response rating) | pest or weed control at 125 g/ha ([4]; pre-emergence, Preemergence, 0 to 100 scale, 0 = no effect, 100 = complete control, read-out: Plant response rating, Crabgrass, Large) | pest or weed control at 125 g/ha ([5]; post-emergence, Postemergence, visual injury, 0 to 100 scale (0 no effect, 100 complete control), approx. ten days, read-out: Foxtail, Giant plant response rating) | pest or weed control at 500 g/ha ([5]; post-emergence, Postemergence, 0 to 100 scale, 0 = no effect, 100 = complete control, approx. ten days, read-out: Plant response rating, Foxtail, Giant) | pest or weed control at 125 g/ha ([5]; pre-emergence, Preemergence, 0 to 100 scale, 0 = no effect, 100 = complete control, read-out: Plant response rating, Foxtail, Giant) | pest or weed control at 125 g/ha ([6]; post-emergence, Postemergence, visual injury, 0 to 100 scale (0 no effect, 100 complete control), approx. ten days, read-out: Morningglory plant response rating) | pest or weed control at 500 g/ha ([6]; post-emergence, Postemergence, 0 to 100 scale, 0 = no effect, 100 = complete control, approx. ten days, read-out: Plant response rating, Morningglory) | pest or weed control at 125 g/ha ([6]; pre-emergence, Preemergence, 0 to 100 scale, 0 = no effect, 100 = complete control, read-out: Plant response rating, Morningglory) | pest or weed control at 500 g/ha ([6]; pre-emergence, Preemergence, visual injury, 0 to 100 scale (0 no effect, 100 complete control), approx. ten days, read-out: Plant response rating, Morningglory) | plant injury at 125 g/ha (corn (Zea mays); post-emergence, Postemergence, 125 g ai/ha, visual injury, 0 to 100 scale (0 no effect, 100 complete control), approx. ten days, read-out: Corn plant response rating) | Corn plant response rating (crop injury, 0 = no effect, 100 = complete kill) at 500 g/ha (corn (Zea mays); post-emergence, Postemergence, 0 to 100 scale, 0 = no effect, 100 = complete control, approx. ten days) | Corn plant response rating (crop injury, 0 = no effect, 100 = complete kill) at 125 g/ha (corn (Zea mays); pre-emergence, Preemergence, 125 g ai/ha, 0 to 100 scale, 0 = no effect, 100 = complete control) | Corn plant response rating (crop injury, 0 = no effect, 100 = complete kill) at 500 g/ha (corn (Zea mays); pre-emergence, Preemergence, visual injury, 0 to 100 scale (0 no effect, 100 complete control), approx. ten days) | pest or weed control at 125 g/ha ([7]; pre-emergence, Preemergence, 0 to 100 scale, 0 = no effect, 100 = complete control, read-out: Plant response rating, Velvetleaf) | pest or weed control at 500 g/ha ([7]; pre-emergence, Preemergence, visual injury, 0 to 100 scale (0 no effect, 100 complete control), approx. ten days, read-out: Plant response rating, Velvetleaf) | pest or weed control at 250 g/ha ([8]; 250 g ai/ha, flooded paddy test, visual rating on 0 to 100 scale (0 no effect, 100 complete control) after 13 to 15 days, read-out: Plant response rating, Flood, Barnyardgrass) | pest or weed control at 31 g/ha ([8]; Flood (flooded paddy test), 31 g ai/ha, scale of 0 to 100 where 0 is no effect and 100 is complete control, 13 to 15 days, read-out: Plant response rating, Barnyardgrass) | pest or weed control at 62 g/ha ([8]; Flood (flooded paddy test), 62 g ai/ha, scale 0 to 100, 0 is no effect, 100 is complete control, 13 to 15 days, read-out: Plant response rating, Barnyardgrass) | pest or weed control at 125 g/ha ([8]; Flood (flooded paddy test), 125 g ai/ha, scale 0 to 100, 0 is no effect, 100 is complete control, 13 to 15 days, read-out: Plant response rating, Barnyardgrass) | plant injury at 250 g/ha (rice (Oryza sativa); 250 g ai/ha, flooded paddy test, visual rating on 0 to 100 scale (0 no effect, 100 complete control) after 13 to 15 days, read-out: Plant response rating, Flood, Rice) | plant injury at 31 g/ha (rice (Oryza sativa); Flood (flooded paddy test), 31 g ai/ha, scale of 0 to 100 where 0 is no effect and 100 is complete control, 13 to 15 days, read-out: Plant response rating, Rice) | plant injury at 62 g/ha (rice (Oryza sativa); Flood (flooded paddy test), 62 g ai/ha, scale 0 to 100, 0 is no effect, 100 is complete control, 13 to 15 days, read-out: Plant response rating, Rice) | plant injury at 125 g/ha (rice (Oryza sativa); Flood (flooded paddy test), 125 g ai/ha, scale 0 to 100, 0 is no effect, 100 is complete control, 13 to 15 days, read-out: Plant response rating, Rice)
70%: pest or weed control at 500 g/ha ([2]; pre-emergence, Preemergence, visual injury, 0 to 100 scale (0 no effect, 100 complete control)) | pest or weed control at 500 g/ha ([7]; post-emergence, Postemergence, 0 to 100 scale, 0 = no effect, 100 = complete control, approx. ten days, read-out: Plant response rating, Velvetleaf) | pest or weed control at 62 g/ha ([9]; Flood (flooded paddy test), 62 g ai/ha, scale 0 to 100, 0 is no effect, 100 is complete control, 13 to 15 days, read-out: Plant response rating, Ducksalad) | pest or weed control at 125 g/ha ([9]; Flood (flooded paddy test), 125 g ai/ha, scale 0 to 100, 0 is no effect, 100 is complete control, 13 to 15 days, read-out: Plant response rating, Ducksalad)
65%: pest or weed control at 250 g/ha ([10]; 250 g ai/ha, flooded paddy test, visual rating on 0 to 100 scale (0 no effect, 100 complete control) after 13 to 15 days, read-out: Plant response rating, Flood, Sedge, Umbrella)
30%: pest or weed control at 125 g/ha ([7]; post-emergence, Postemergence, visual injury, 0 to 100 scale (0 no effect, 100 complete control), approx. ten days, read-out: Velvetleaf plant response rating)
50%: pest or weed control at 500 g/ha ([2]; post-emergence, Postemergence, 0 to 100 scale, 0 = no effect, 100 = complete control) | pest or weed control at 62 g/ha ([10]; Flood (flooded paddy test), 62 g ai/ha, scale 0 to 100, 0 is no effect, 100 is complete control, 13 to 15 days, read-out: Plant response rating, Sedge, Umbrella)
20%: pest or weed control at 500 g/ha ([4]; pre-emergence, Preemergence, visual injury, 0 to 100 scale (0 no effect, 100 complete control), approx. ten days, read-out: Plant response rating, Crabgrass, Large)
40%: pest or weed control at 31 g/ha ([10]; Flood (flooded paddy test), 31 g ai/ha, scale of 0 to 100 where 0 is no effect and 100 is complete control, 13 to 15 days, read-out: Plant response rating, Sedge, Umbrella)
